According to patent US20260028338A1, “HETEROBIFUNCTIONAL COMPOUNDS AND METHODS OF TREATING DISEASE” (Halda Therapeutics OpCo, Inc., priority 2023, published 2026):

Assays:
[1] = target: T1, His-tagged BRD4 BD1 (46-168) (Homo sapiens, UniProt O60885); experiment: AlphaLISA competition assay, BRD4 BD1; format: binding; details: BRD4-BD1, AlphaLISA competition with biotinylated histone H4K5/8/12/16(Ac) peptide, 10 nM
T1 construct: His-tagged BRD4 BD1 (46-168) and biotinylated histone H4K5/8/12/16(Ac) peptide
Experimental: (§1) Exemplary compounds were tested for ability to bind to bromodomain-containing protein 4 (BRD4).
(§2) Compounds were tested using a developed AlphaLISA competition assay. Briefly, His-tagged BRD4 BD1 (46-168) and biotinylated histone H4K5/8/12/16(Ac) peptide (ANASPEC, AS-64989-1) were incubated in 20 mM HEPES pH 7.5, 100 mM NaCl, 0.5 mM TCEP, 0.1% BSA, 0.02% CHAPS at a final concentration of 10 nM. Test compounds were serially diluted ten times in the same buffer and were added to the BRD4-peptide mixture for 1 h incubation at room temperature. Following incubation, Streptavidin AlphaLISA acceptor beads (PerkinElmer, AL125M) were added to BRD4-peptide-compound samples to a final concentration of 0.01 mg/mL for a 0.5 h incubation at room temperature in the dark. Following incubation, the same amount of Nickel Chelate Alpha donor beads (PerkinElmer, AS101M) were added to the samples for a final 1 h incubation. The AlphaLISA signals were measured using an EnVision plate reader (PerkinElmer). The data were uploaded to Screening Ultra (Dotmatics) to determine the half-maximal inhibitory concentration (IC50) for each test compound.

[2] = test system: T-Rex 293 cell line SC cells lacking increased expression of BCL6 protein; experiment: Cellular growth inhibition assay, T-Rex 293 SC cells without doxycycline (CellTiter-Glo); format: cell-based; details: T-Rex 293 SC cells not exposed to doxycycline (no increased BCL6 expression), 72 hours, CellTiter-Glo 2.0
Experimental: (§3) Exemplary compounds were tested for ability to inhibit the proliferation of the following types of cells: (i) a T-Rex 293 cell line having increased expression of BCL6 protein due to exposure of doxycycline and (ii) a T-Rex 293 cell line lacking increased expression of BCL6 protein.
(§4) The following types of cells were prepared for this experiment: (i) a T-Rex 293 cell line having increased expression of BCL6 protein due to exposure to doxycycline and (ii) a T-Rex 293 cell line lacking increased expression of BCL6 protein. Ability of the test compounds to inhibit proliferation of the foregoing cell types was evaluated according to the procedures set forth below.
(§5) The doxycycline-inducible BCL6 protein expressing cell line was established using the following protocol: T-Rex 293 cells were purchased from Invitrogen (Cat #R71007) and transfected using Lipofectamine 2000 with the wild-type BCL6 protein sequence cloned into the pcDNA4/TO vector. Transfected cells were selected using 400 μg/mL Zeocin (Invitrogen Cat #R25001). Following selection, single clones were raised and maintained in Dulbecco's Modified Eagle Medium (DMEM) supplemented with 10% w/w Tetracycline-free fetal bovine serum (FBS) and 250 μg/mL Zeocin. Clones were analyzed for expression of BCL6 protein in the presence and absence of 10 ng/mL doxycycline (Sigma Cat #D9891), and a single doxycycline-inducible clone (hereinafter “SC”) was selected for use in downstream assays.
(§6) The SC cells were seeded on poly-D-lysine coated, black clear-bottom 384-well plates at 2500/well, in 25 μL Dulbecco's Modified Eagle Medium (DMEM) supplemented with 10% w/w Tetracycline-free fetal bovine serum (FBS) and 1% w/w pen-strep, with or without 10 ng/mL doxycycline. Pen-Strep is a commercially available mixture of penicillin G and streptomycin, which is used in mammalian cell culture media to prevent bacterial contamination. Dulbecco's Modified Eagle Medium (DMEM) supplemented with 10% w/w Tetracycline-free fetal bovine serum (FBS) and 1% w/w pen-strep, with or without 10 ng/mL doxycycline is herein referred to as Treatment Medium. Following seeding of cells in the plates, the plates were spun at 300×g for 30 seconds, then equilibrated to room temperature for 30 minutes, and then deposited in a humidified tissue culture incubator maintained at 37° C. with 5% CO2.
(§7) At 24 hours after seeding of the cells, dilutions of test compound were prepared in DMSO and dissolved in Treatment Medium, to achieve a final DMSO concentration of 0.5% w/w, thereby providing the Test Compound Solution. A 25 μL aliquot of the Test Compound Solution was added to cells in the well plates. An equal volume of a solution containing DMSO and Treatment Medium was used as a negative control. Following treatment of cells with Test Compound Solution or said equal volume of a solution containing DMSO and Treatment Medium, the plates were spun at 300×g for 30 seconds, and then left in an incubator for 72 hours.
(§8) At the end of the treatment duration, cell viability was quantified with CellTiter-Glo 2.0 reagent (Promega Cat #G9243). For this purpose, plates were equilibrated to room temperature for 30 minutes, and then 25 μL of CellTiter-Glo 2.0 reagent was added to cells in the plate wells. Plates were then agitated on a shaker for two minutes at 500 rpm and subsequently incubated at room temperature for 10 minutes. Following incubation, the plates were spun at 3000×g for 30 seconds, then sealed with an optical adhesive cover, and luminescence readings were measured with an EnVision Plate Reader (Perkin Elmer).
(§9) Data was normalized using zero luminescence for baseline. A four-parameter non-linear regression curve fit was applied to dose-response data in GraphPad Prism data analysis software to determine the half-maximal growth inhibitory concentration (GI50) for each test compound.

[3] = test system: T-Rex 293 cell line SC cells having increased expression of BCL6 protein; experiment: Cellular growth inhibition assay, T-Rex 293 SC cells with doxycycline (CellTiter-Glo); format: cell-based; details: T-Rex 293 SC cells with 10 ng/mL doxycycline (increased BCL6 expression), 72 hours, CellTiter-Glo 2.0
Experimental: as §3, §4, §5, §6, §7, §8, §9

[4] = target: T2, His-tagged BRD4 BD2 (333-460) (Homo sapiens, UniProt O60885); experiment: AlphaLISA competition assay, BRD4 BD2; format: binding; details: BRD4-BD2, AlphaLISA competition with biotinylated histone H4K5/8/12/16(Ac) peptide, 20 nM
T2 construct: The same assay was developed for His-tagged BRD4 BD2 (333-460) and biotinylated histone H4K5/8/12/16(Ac) peptide
Experimental: as §1, §2
The same assay was developed for His-tagged BRD4 BD2 (333-460) and biotinylated histone H4K5/8/12/16(Ac) peptide at a final concentration of 20 nM.

[5] = test system: Farage cell line; experiment: Cellular growth inhibition assay, Farage cells (CellTiter-Glo); format: cell-based; details: Farage cell line (DLBCL), 72 hours, CellTiter-Glo 2.0
Experimental: Exemplary compounds were tested for ability to inhibit the proliferation of Su-DHL-4 and Farage cells. Su-DHL-4 and Farage cells are commercially available diffuse large B cell lymphoma cell lines (DLBCL).
Su-DHL-4 and Farage cells were purchased from American Type Cell Culture (ATCC Cat #CRL-2957/CRL-2630) and then seeded on poly-D-lysine coated, black clear-bottom 384-well plates at 3000/well in 25 μL Roswell Park Memorial Institute media (RPMI-1640) supplemented with 10% w/w Fetal bovine serum (FBS) and 1% w/w Pen-Strep. Pen-Strep is a commercially available mixture of penicillin G and streptomycin, which is used in mammalian cell culture media to prevent bacterial contamination. Roswell Park Memorial Institute media (RPMI-1640) supplemented with 10% w/w fetal bovine serum (FBS), and 1% w/w Pen-Strep is herein referred to as Treatment Medium. Following seeding of cells in the plates, the plates were spun at 300×g for 30 seconds, then equilibrated to room temperature for 30 minutes, and then deposited in a humidified tissue culture incubator maintained at 37° C. with 5% CO2.
as §7, §8, §9

SMILES	IC50 [1] [nM]	GI50 [2] [nM]	GI50 [3] [nM]	IC50 [4] [nM]	GI50 [5] [nM]
CCS(=O)(=O)Nc1ccc(Oc2ccc(OCCN3CCN(CC4CCN(c5ncc(Cl)c(Nc6ccc7c(c6)cc(OCC(=O)NC)c(=O)n7C)n5)CC4)CC3)cc2)c(-c2cn(C)c(=O)c3[nH]ccc23)c1 [Compound I-7]	5 to 50	< 500	< 500	5 to 50	–
CCS(=O)(=O)Nc1ccc(Oc2ccc(CCN3CCN(CC4CCN(c5ncc(Cl)c(Nc6ccc7c(c6)cc(OCC(=O)NC)c(=O)n7C)n5)CC4)CC3)cc2)c(-c2cn(C)c(=O)c3[nH]ccc23)c1 [Compound I-16, 2-[[6-[[5-chloro-2-[4-[[4-[2-[4-[4-(ethylsulfonylamino)-2-(6-methyl-7-oxo-1H-pyrrolo[2,3-c]pyridin-4-yl)phenoxy]phenyl]ethyl]piperazin-1-yl]methyl]-1-piperidyl]pyrimidin-4-yl]amino]-1-methyl-2-oxo-3-quinolyl]oxy]-N-methyl-acetamide]	5 to 50	< 500	< 500	< 5	–
CNC(=O)COc1cc2cc(Nc3nc(N4CCC5(CC4)CC(Oc4ccc(C6=N[C@@H](C)c7nnc(C)n7-c7sc(C)c(C)c76)cc4)C5)ncc3Cl)ccc2n(C)c1=O [Compound I-28, 2-[[6-[[5-chloro-2-[2-[4-[(9S)-4,5,9,13-tetramethyl-3-thia-1,8,11,12-tetrazatricyclo[8.3.0.02,6]trideca-2 (6),4,7,10,12-pentaen-7-yl]phenoxy]-7-azaspiro[3.5]nonan-7-yl]pyrimidin-4-yl]amino]-1-methyl-2-oxo-3-quinolyl]oxy]-N-methyl-acetamide]	–	< 500	< 500	–	< 500
CCS(=O)(=O)Nc1ccc(Oc2ccc(OCCN3CCN(CCC4CCN(c5ncc(Cl)c(Nc6ccc7c(c6)cc(OCC(=O)NC)c(=O)n7C)n5)CC4)CC3)cc2)c(-c2cn(C)c(=O)c3[nH]ccc23)c1 [Compound I-14]	5 to 50	500 to 1500	< 500	< 5	–
CCS(=O)(=O)Nc1ccc(Oc2cccc(OCCN3CCN(CCCC4CCN(c5ncc(Cl)c(Nc6ccc7c(c6)cc(OCC(=O)NC)c(=O)n7C)n5)CC4)CC3)c2)c(-c2cn(C)c(=O)c3[nH]ccc23)c1 [Compound I-11]	5 to 50	< 500	< 500	5 to 50	–
CCS(=O)(=O)Nc1ccc(Oc2cccc(CCN3CCN(CC4CCN(c5ncc(Cl)c(Nc6ccc7c(c6)cc(OCC(=O)NC)c(=O)n7C)n5)CC4)CC3)c2)c(-c2cn(C)c(=O)c3[nH]ccc23)c1 [Compound I-17]	5 to 50	< 500	> 3000	5 to 50	–
CNC(=O)COc1cc2cc(Nc3nc(N4CCC(CN5CCC6(CC5)CC(CC5CC(Oc7ccc(C(C)(C)O)cc7-c7cn(C)c(=O)c8[nH]ccc78)C5)C6)CC4)ncc3Cl)ccc2n(C)c1=O (stereo not shown) [Compound I-53]	–	< 500	< 500	–	< 500
CCS(=O)(=O)Nc1ccc(Oc2ccc(OCCCN3CCN(CC4CCN(c5ncc(Cl)c(Nc6ccc7c(c6)cc(OCC(=O)NC)c(=O)n7C)n5)CC4)CC3)cc2)c(-c2cn(C)c(=O)c3[nH]ccc23)c1 [Compound I-8]	5 to 50	< 500	< 500	5 to 50	–
CCS(=O)(=O)Nc1ccc(Oc2cccc(OCCN3CCN(CCC4CCN(c5ncc(Cl)c(Nc6ccc7c(c6)cc(OCC(=O)NC)c(=O)n7C)n5)CC4)CC3)c2)c(-c2cn(C)c(=O)c3[nH]ccc23)c1 [Compound I-13]	5 to 50	< 500	< 500	5 to 50	–
CNC(=O)COc1cc2cc(Nc3nc(N4CCC(CN5CCC6(CC5)CC(CC5CC(Oc7ccc(C(C)(C)O)cc7-c7cn(C)c(=O)c8[nH]ccc78)C5)C6)CC4)ncc3Cl)ccc2n(C)c1=O (stereo not shown) [Compound I-54]	–	–	< 500	–	< 500
CCS(=O)(=O)Nc1ccc(Oc2ccc(OCCCCN3CCN(CC4CCN(c5ncc(Cl)c(Nc6ccc7c(c6)cc(OCC(=O)NC)c(=O)n7C)n5)CC4)CC3)cc2)c(-c2cn(C)c(=O)c3[nH]ccc23)c1 [Compound I-10]	5 to 50	< 500	< 500	< 5	–
CCS(=O)(=O)Nc1ccc(Oc2cccc(OCCCN3CCN(CC4CCN(c5ncc(Cl)c(Nc6ccc7c(c6)cc(OCC(=O)NC)c(=O)n7C)n5)CC4)CC3)c2)c(-c2cn(C)c(=O)c3[nH]ccc23)c1 [Compound I-6]	5 to 50	< 500	< 500	5 to 50	–
CCS(=O)(=O)Nc1ccc(Oc2ccc(OCCN3CCN(CCCC4CCN(c5ncc(Cl)c(Nc6ccc7c(c6)cc(OCC(=O)NC)c(=O)n7C)n5)CC4)CC3)cc2)c(-c2cn(C)c(=O)c3[nH]ccc23)c1 [Compound I-12]	5 to 50	< 500	< 500	5 to 50	–
CCS(=O)(=O)Nc1ccc(Oc2cccc(OCCCCN3CCN(CC4CCN(c5ncc(Cl)c(Nc6ccc7c(c6)cc(OCC(=O)NC)c(=O)n7C)n5)CC4)CC3)c2)c(-c2cn(C)c(=O)c3[nH]ccc23)c1 [Compound I-9]	5 to 50	< 500	< 500	5 to 50	–
